Like-named read-outs stand apart in the source and are kept apart here.
Molecular target: T1, MKLP-2 (RabK6) (Homo sapiens, UniProt O95235, S2A)
T1 construct: Expression clones for MKLP-21-519 (coding for residues 1 to 519) were obtained as follows; His-tag; made in house; host or cells: E. coli BL21(DE3)
T1 sequence (O95235 1-519 S2A limits assumed): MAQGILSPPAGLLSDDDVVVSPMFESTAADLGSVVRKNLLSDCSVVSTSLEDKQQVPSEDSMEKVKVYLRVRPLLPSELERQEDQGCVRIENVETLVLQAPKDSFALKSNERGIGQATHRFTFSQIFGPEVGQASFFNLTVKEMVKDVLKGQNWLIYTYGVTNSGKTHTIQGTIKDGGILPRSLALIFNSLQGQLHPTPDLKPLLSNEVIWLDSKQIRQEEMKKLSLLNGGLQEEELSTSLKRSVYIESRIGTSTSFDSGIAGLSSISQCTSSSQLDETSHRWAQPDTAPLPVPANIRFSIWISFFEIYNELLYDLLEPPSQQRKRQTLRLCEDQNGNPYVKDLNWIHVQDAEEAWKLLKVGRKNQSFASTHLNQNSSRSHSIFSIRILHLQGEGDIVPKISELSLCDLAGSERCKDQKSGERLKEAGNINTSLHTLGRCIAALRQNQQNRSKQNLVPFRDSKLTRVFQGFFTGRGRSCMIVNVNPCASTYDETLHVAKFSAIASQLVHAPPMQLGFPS
Experiment: biochemical
Experimental: All experiments were performed at room temperature using a 96-well Sunrise photometer (Tecan, Maennedorf, Switzerland) at a final volume of 100 μl per well.
Steady-state ATPase rates were measured using the pyruvate kinase/lactate dehydrogenase-linked assay in buffer A25A (25 mM potassium ACES, pH 6.9, 2 mM MgAc2, 2 mM Na-EGTA, 0.1 mM Na-EDTA, 1 mM β-mercaptoethanol) supplemented with 1 mM MgATP; 2 mM PEP; 0.25 mM NADH; 3-10 μg/ml pyruvate kinase; 3 μg/ml lactate dehydrogenase and 8 μM taxol.
The data were analyzed using Kaleidagraph 3.0 (Synergy Software, Reading, Pa.) and Microsoft Excel to obtain the kinetic variables.
When necessary, the inhibitor concentrations were adapted depending on the initial IC50 value. Experiments were performed in triplicate and averaged data points are shown with error bars±SD.

[1] = basal ATPase activity, absence of MTs, read-out: RabK6 basal IC50 X

`COc1ccc2[nH]cc(C(C)=Cc3cccnc3)c2c1` (racemic) [Example 59, 5-methoxy-3-(1-(pyridin-3-yl)prop-1-en-2-yl)-1H-indole] gave an IC50 of under 5 µM.
`N#C/C(=C\c1ccccn1)c1c[nH]c2ccccc12` [Example 3, (Z)-2-(1H-indol-3-yl)-3-pyridin-2-yl-acrylonitrile] was tested, and the IC50 [1] was over 50 µM.
`COc1ccc2[nH]cc(/C(C#N)=C/c3cccnc3)c2c1` [Example 4, (Z)-2-(5-methoxy-1H-indol-3-yl)-3-pyridin-3-yl-acrylonitrile] gave an IC50 [1] of under 5 µM.
For `N#C/C(=C\c1cccnc1)c1c[nH]c2ccc(OCc3ccccc3)cc12` [Example 5, (Z)-2-(5-benzyloxy-1H-indol-3-yl)-3-pyridin-3-yl-acrylonitrile], the IC50 [1] was over 50 µM.
With `COc1ccc2[nH]cc(/C(C#N)=C/c3ccccn3)c2c1` [Example 6, (Z)-2-(5-methoxy-1H-indol-3-yl)-3-pyridin-2-yl-acrylonitrile] the IC50 [1] was 10 to 20 µM.
`COc1ccc2[nH]cc(/C(C#N)=C/c3cc(OC)c(O)c(OC)c3)c2c1` [Example 7, (Z)-3-(4-hydroxy-3,5-dimethoxy-phenyl)-2-(5-methoxy-1H-indol-3-yl)-acrylonitrile] showed an IC50 [1] of 20 to 50 µM.
`N#C/C(=C\c1ccccc1)c1c[nH]c2ccccc12` [Example 9, (Z)-2-(1H-indol-3-yl)-3-phenyl-acrylonitrile] gave an IC50 [1] of 20 to 50 µM.
`N#C/C(=C\c1ccc2c(c1)OCO2)c1c[nH]c2ccccc12` [Example 11, (Z)-3-benzo[1,3]dioxol-5-yl-2-(1H-indol-3-yl)-acrylonitrile] showed an IC50 [1] of 10 to 20 µM.
`COc1cc(/C=C(\C#N)c2c[nH]c3ccc(OC)cc23)cc(OC)c1` [Example 14, (Z)-3-(3,5-dimethoxy-phenyl)-2-(5-methoxy-1H-indol-3-yl)-acrylonitrile] gave an IC50 [1] of 5 to 10 µM.
For `N#C/C(=C\c1cncnc1)c1c[nH]c2ccccc12` [Example 15, (Z)-2-(1H-indol-3-yl)-3-pyrimidin-5-yl-acrylonitrile], the IC50 [1] was 10 to 20 µM.
Work on `COc1ccc2[nH]cc(/C(C#N)=C/c3cncnc3)c2c1` [Example 16, (Z)-2-(5-methoxy-1H-indol-3-yl)-3-pyrimidin-5-yl-acrylonitrile] yielded an IC50 [1] of 5 to 10 µM.
Compound `COc1ccc2[nH]cc(C(C#N)Cc3cccnc3)c2c1` (stereo not shown) [Example 18, 2-(5-methoxy-1H-indol-3-yl)-3-pyridin-3-yl-propionitrile] has an IC50 [1] of 20 to 50 µM.
With `CC(=O)Oc1ccc2[nH]cc(/C(C#N)=C/c3cccnc3)c2c1` [Example 20, 3-(1-cyano-2-(pyridin-3-yl)vinyl)-1H-indol-5-yl-acetate] the IC50 [1] was under 5 µM.
Compound `COCC(=O)Oc1ccc2[nH]cc(/C(C#N)=C/c3cccnc3)c2c1` [Example 21, 3-(1-cyano-2-(pyridin-3-yl)vinyl)-1H-indol-5-yl-methoxyacetate] has an IC50 [1] of 5 to 10 µM.
Compound `CCOc1ccc2[nH]cc(/C(C#N)=C/c3cccnc3)c2c1` [Example 22, (Z)-2-(5-ethoxy-1H-indol-3-yl)-3-pyridin-3-yl-acrylonitrile] has an IC50 [1] of under 5 µM.
`CC(C)Oc1ccc2[nH]cc(/C(C#N)=C/c3cccnc3)c2c1` [Example 23, (Z)-2-(5-isopropoxy-1H-indol-3-yl)-3-pyridin-3-yl-acrylonitrile] was tested, and the IC50 [1] was under 5 µM.
`N#C/C(=C\c1cccnc1)c1c[nH]c2ccc(Cl)cc12` [Example 24, (Z)-2-(5-chloro-1H-indol-3-yl)-3-pyridin-3-yl-acrylonitrile] was tested, and the IC50 [1] was under 5 µM.
Work on `N#C/C(=C\c1cccnc1)c1c[nH]c2ccc(F)cc12` [Example 25, (Z)-2-(5-fluoro-1H-indol-3-yl)-3-pyridin-3-yl-acrylonitrile] yielded an IC50 of under 5 µM.
In the case of `COc1ccc2c(/C(C#N)=C/c3cccnc3)c[nH]c2c1` [Example 26, (Z)-2-(6-methoxy-1H-indol-3-yl)-3-pyridin-3-yl-acrylonitrile], the IC50 is reported as 5 to 10 µM.
For `COc1cccc2[nH]cc(/C(C#N)=C/c3cccnc3)c12` [Example 27, (Z)-2-(4-methoxy-1H-indol-3-yl)-3-pyridin-3-yl-acrylonitrile], the IC50 was 10 to 20 µM.
Compound `COc1ccc2[nH]cc(/C(C#N)=C/c3ccc(F)nc3)c2c1` [Example 28, (Z)-3-(6-fluoropyridin-3-yl)-2-(5-methoxy-1H-indol-3-yl)-acrylonitrile] has an IC50 of under 5 µM.
`N#C/C(=C\c1cccnc1)c1c[nH]c2ccc(O)cc12` [Example 29, (Z)-2-(5-hydroxy-1H-indol-3-yl)-3-pyridin-3-yl-acrylonitrile] gave an IC50 of under 5 µM.
With `COc1ccc2[nH]cc(/C(C#N)=C/c3cccc(C#N)c3)c2c1` [Example 30, (Z)-3-[2-cyano-2-(5-methoxy-1H-indol-3-yl)-vinyl]-benzonitrile] the IC50 was under 5 µM.
`COc1ccc2[nH]cc(/C(C#N)=C/c3cnccc3C)c2c1` [Example 31, (Z)-2-(5-methoxy-1H-indol-3-yl)-3-(4-methyl-pyridin-3-yl)-acrylonitrile] gave an IC50 of under 5 µM.
In the case of `COc1ccc2[nH]cc(/C(C#N)=C/c3cccc(C(N)=O)c3)c2c1` [Example 32, (Z)-3-[2-cyano-2-(5-methoxy-1H-indol-3-yl)-vinyl]-benzamide], the IC50 is reported as 10 to 20 µM.
In the case of `COc1ccc2[nH]cc(/C(C#N)=C/c3ccc[n+](C)c3)c2c1` [Example 33, (Z)-3-[2-cyano-2-(5-methoxy-1H-indol-3-yl)-vinyl]-1-methylpyridinium iodide], the IC50 is reported as 10 to 20 µM.
`CCCc1nc2c(ccc3[nH]cc(/C(C#N)=C/c4cccnc4)c32)o1` [Example 34, (Z)-2-(2-propyl-6H-oxazolo[4,5-e]indol-8-yl)-3-(pyridin-3-yl)acrylonitrile] showed an IC50 of over 50 µM.
In the case of `COc1cc(-c2ccc3[nH]cc(/C(C#N)=C/c4cccnc4)c3c2)cc(OC)c1OC` [Example 38, (Z)-3-(pyridin-3-yl)-2-(5-(3,4,5-trimethoxyphenyl)-1H-indol-3-yl)-acrylonitrile], the IC50 is reported as 5 to 10 µM.
`N#C/C(=C\c1cccnc1)c1c[nH]c2ccc(-c3ccc(F)cc3)cc12` [Example 39, (Z)-2-(5-(4-fluorophenyl)-1H-indol-3-yl)-3-(pyridin-3-yl)-acrylonitrile] was tested, and the IC50 was 10 to 20 µM.
Compound `COC(=O)Nc1ccc2[nH]cc(/C(C#N)=C/c3cccnc3)c2c1` [Example 41, (Z)-methyl 3-(1-cyano-2-(pyridin-3-yl)vinyl)-1H-indol-5-ylcarbamate] has an IC50 of under 5 µM.
`N#C/C(=C\c1cccc([N+](=O)[O-])c1)c1c[nH]c2ccccc12` [Example 42, (Z)-2-(1H-indol-3-yl)-3-(3-nitro-phenyl)-acrylonitrile] was tested, and the IC50 was over 50 µM.
Compound `COc1ccc2[nH]cc(/C(C#N)=C/c3cccc([N+](=O)[O-])c3)c2c1` [Example 43, (Z)-2-(5-methoxy-1H-indol-3-yl)-3-(3-nitro-phenyl)-acrylonitrile] has an IC50 of over 50 µM.
`N#C/C(=C\c1cccc(N)c1)c1c[nH]c2ccccc12` [Example 44, (Z)-3-(3-amino-phenyl)-2-(1H-indol-3-yl)-acrylonitrile] was tested, and the IC50 was over 50 µM.
In the case of `COc1ccc2[nH]cc(/C(C#N)=C/c3cccc(N)c3)c2c1` [Example 45, (Z)-3-(3-amino-phenyl)-2-(5-methoxy-1H-indol-3-yl)-acrylonitrile], the IC50 is reported as over 50 µM.
`COc1cncc(/C=C(\C#N)c2c[nH]c3ccc(OC)cc23)c1` [Example 46, (Z)-2-(5-methoxy-1H-indol-3-yl)-3-(5-methoxy-pyridin-3-yl)-acrylonitrile] showed an IC50 of 10 to 20 µM.
In the case of `COc1ccc2[nH]cc(/C(C#N)=C/c3cnccc3Cl)c2c1` [Example 47, (Z)-3-(4-chloro-pyridin-3-yl)-2-(5-methoxy-1H-indol-3-yl)-acrylonitrile], the IC50 is reported as 5 to 10 µM.
With `COc1ccc2[nH]cc(/C(C#N)=C/c3cccnc3F)c2c1` [Example 48, (Z)-3-(2-fluoropyridin-3-yl)-2-(5-methoxy-1H-indol-3-yl)-acrylonitrile] the IC50 was under 5 µM.
`COc1ccc2[nH]cc(/C(C#N)=C/c3ccc(Cl)nc3)c2c1` [Example 49, (Z)-3-(6-chloropyridin-3-yl)-2-(5-methoxy-1H-indol-3-yl)-acrylonitrile] showed an IC50 of 5 to 10 µM.
`COc1ccc2[nH]cc(/C(C#N)=C/c3ccsc3)c2c1` [Example 50, (Z)-2-(5-methoxy-1H-indol-3-yl)-3-thiophen-3-yl-acrylonitrile] gave an IC50 of over 50 µM.
Work on `COc1ccc2[nH]cc(/C(C#N)=C/c3cnn(C)c3)c2c1` [Example 51] yielded an IC50 of over 50 µM.
`COc1ccc2[nH]cc(/C(C#N)=C/c3ccc(OC)nc3)c2c1` [Example 52, (Z)-3-(6-methoxy-pyridin-3-yl)-2-(5-methoxy-1H-indol-3-yl)-acrylonitrile] gave an IC50 of 10 to 20 µM.
In the case of `COc1ccc2[nH]cc(/C(C#N)=C/c3ccc(C)nc3)c2c1` [Example 53, (Z)-2-(5-methoxy-1H-indol-3-yl)-3-(6-methylpyridin-3-yl)-acrylonitrile], the IC50 is reported as under 5 µM.
Compound `COc1ccc2[nH]cc(/C(C#N)=C/c3ccc(C#N)nc3)c2c1` [Example 54, (Z)-5-[2-cyano-2-(5-methoxy-1H-indol-3-yl)-vinyl]-picolinonitrile] has an IC50 of 5 to 10 µM.
